One may read the IC50 as the concentration that inhibits the measured activity by half. A high value points to a need for much substance. For orientation: Ki means a measure of affinity in units of concentration, obtained from inhibition or displacement. Low values mean a stronger hold on the target, high ones a looser hold on the target.

In assay [1] the target is T1, CRTh2 receptor (Homo sapiens, UniProt Q9Y5Y4).
T1 sequence (Q9Y5Y4 1-395): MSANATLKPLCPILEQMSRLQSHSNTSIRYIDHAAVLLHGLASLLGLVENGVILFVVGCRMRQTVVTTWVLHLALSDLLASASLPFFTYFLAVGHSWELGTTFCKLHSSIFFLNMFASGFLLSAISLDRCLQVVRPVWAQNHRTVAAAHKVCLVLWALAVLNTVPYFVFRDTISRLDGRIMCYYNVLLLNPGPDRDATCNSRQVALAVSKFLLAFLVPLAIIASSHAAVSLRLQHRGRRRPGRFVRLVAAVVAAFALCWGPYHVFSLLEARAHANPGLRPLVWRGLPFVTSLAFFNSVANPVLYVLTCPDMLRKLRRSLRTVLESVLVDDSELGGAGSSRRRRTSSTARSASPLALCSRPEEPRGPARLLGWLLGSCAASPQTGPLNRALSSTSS
Description: CRTh2 cAMP functional assay. On the set-up: expressed in transfected cells; host or cells: CHO cells. The settings on record: CHO cells stably transfected with CRTh2; 10 nM PGD2 and 5 μM forskolin; cAMP Alphascreen. In kind it is cell-based. The protocol: CRTh2 cAMP Assay Protocol
Test compounds are prepared in assay stimulation buffer/DMSO and 5 μL/well is added to an assay plate (384-well white opti-plate).
CHO cells stably transfected with the CRTh2 receptor are prepared (dissociated from a cell culture flask and washed in PBS) to a concentration of 4×10^6/mL in assay stimulation buffer and added to the assay plate (10 μL/well).
The assay plate is incubated at room temperature on a shaker for 15 minutes.
A mix of agonist (10 nM PGD2) and 5 μM forskolin is prepared in assay stimulation buffer and added to the assay plate (5 μL/well).
In addition, a cAMP standard is serially diluted in assay stimulation buffer and added to separate empty wells on the assay plate (20 μL/well).
The assay plate is incubated at room temperature on a shaker for 60 minutes.
A cell lysis mix (lysis buffer containing Alphascreen™ donor beads and biotinylated cAMP) is prepared under darkened conditions 60 minutes prior to addition. Alphascreen™ acceptor beads are added to the lysis mix after 60 minutes. […]
The assay plate is sealed with Topseal-S™ and incubated in the dark at room temperature on a shaker for 45 minutes. The plate is then counted using a Packard Fusion™ instrument.
The resulting counts per minute are converted to nM cAMP by using the prepared cAMP standard curve. IC50 values are then determined using Prism™ software.

Assay [2] deals with T1, CRTh2 receptor. Description: Scintillation Proximity Assay (SPA) binding assay, 3H PGD2. On the set-up: expressed in transfected cells; host or cells: K562 or CHO cells, membranes. The settings on record: membranes from K562 or CHO cells stably transfected with human CRTh2; 3H prostaglandin D2. The protocol: Scintillation Proximity Assay (SPA) protocol
Membranes are prepared from K562 or Chinese Hamster Ovary (CHO) cells stably transfected with human CRTh2 receptors.
The assay is performed in a 96-well U-bottomed polypropylene plate in a final volume of 100 μL and the components of the assay are added as follows: test compound in DMSO/assay buffer (25 μL), ^3H prostaglandin D2 (PGD2) (25 μL) and CRTh2 membrane fragments (50 μL). The assay is incubated at ambient temperature with shaking for 60 minutes, then harvested on to filter plates. The plate is dried for 2 hours, prior to addition of Micro-Scint 20M (50 μL) and sealing with TopSeal-S™. Plates are then counted using a Packard Top Count instrument, each well being counted for 20 minutes. Ki values are determined using Sigma Plot™ software.
(In general: SPA uses beads or plates that emit light when radiolabelled molecules are held near them.)

Turning to `CCOC(=O)COc1ccc(Cl)cc1Cc1cc(Cl)ccc1OCC(=O)O` [Example 2, [4-chloro-2-(5-chloro-2-ethoxycarbonylmethoxy-benzyl)-phenoxy]-acetic acid], the IC50 against CRTh2 receptor [1] worked out at 68 nM.
Turning to `CC(C)(Oc1ccc(Cl)cc1Cc1cc(Cl)ccc1OCC(=O)O)C(=O)O` [Example 13, 2-[2-(2-carboxymethoxy-5-chloro-benzyl)-4-chloro-phenoxy]-2-methyl-propionic acid], at CRTh2 receptor [1], 52 nM corresponded to half-maximal inhibition (IC50). Besides, the Ki on CRTh2 receptor [2] stood at 58 nM.
